# In patent publication EP1673349B1, “BENZIMIDAZOLE DERIVATIVES: PREPARATION AND PHARMACEUTICAL APPLICATIONS” (priority 2003, dated 2005):
# Like-named read-outs stand apart in the source and are kept apart here.
# Key:
# [1] = system: Colo205; assay: Cell-based proliferation assay (cyquant), Colo205; parameters: species or system human; conditions: Homo sapiens;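 also: Colo205 cells exposed for 96 h to a range of compound concentrations, growth read by CyQUANT, GI50 taken from plotted dose-response curves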
# Method: (§2) Human colon cancer cell lines (Colo205 and HCT116), human breast cancer cell lines (MDA-MB435 and MDA-MB231), and human lung cancer cell line (A549) were obtained from ATCC. […] MDA-MB435 cells were cultivated in DMEM containing 2 mM L-Glutamine, 5% FBS. HCT116 cells were cultivated in IMEM containing 2 mM L-Glutamine, 5% FBS. A549 and Colo205 cells were seeded in 96-wells plate at 2000 and 5000 cells per well respectively. MDA-MB435, HCT116, MDA-MB231 cells were seeded in 96-wells plate at 6000 cells per well. The plates were incubated at 37°C, 5% CO2, for 24 h. Cells, were treated with compounds at various concentration for 96 h. Cell growth was then monitored using cyquant cell proliferation assay (Invitrogen Pte Ltd). Dose response curves were plotted to determine GI50 values for the compounds using XL-fist.
# [2] = system: acetylated H2A; assay: Histone acetylation assay by immuno-blotting, acetylated H2A; assay type: cell-based, human; conditions: Colo205 cells, 0.1, 1, 5 and 10 µM, 24 h, western blot
# Method: (§1) A hallmark of histone deacetylase (HDAC) inhibition is the increase in the acetylation level of histones. Histone acetylation, including H3, H4 and H2A can be detected by immuno-blotting (westem-blot). Colo205 cells, approximately 1.5 x10^6 cells/ 10 cm dish, were seeded in the previously described medium, cultivated for 24 h and subsequently treated with HDAC inhibitory agents at 0.1, 1; 5 and 10 µM final concentration. After 24 h, cells were harvested and lysed according to the instruction from Sigma Mammalian Cell Lysis Kit. The protein concentration was quantified using BCA method (Sigma Pte Ltd). The protein lysate was separated using 4-12% bis-tris SDS-PAGE gel (Invitrogen Pte Ltd) and was transferred onto PVDF membrane (BioRad Pte Ltd). The membrane was probed separately using primary antibody specific for acetylated H3, acetylated H4 or acetylated H2A (Upstate Pte Ltd). The detection antibody, goat anti rabbit antibody conjugated with HRP was used according to the manufacturing instruction (Pierce Pte Ltd). After removing the detection antibody from the membrane, an enhanced chemiluminescent substrate for detection of HRP (Pierce Pte Ltd) was added onto the membrane. After removing the substrate, the membrane was exposed to an X-ray film (Kodak) for 1 sec - 20 mins. The X-ray film was developed using the X-ray film processor. The density of each band observed on the developed film could be analysed using UVP Bioimaging software (UVP, Inc, Upland, CA). The values were then normalized against the density of actin in the corresponding samples to obtain the expression of the protein.
# [3] = system: acetylated H4; assay: Histone acetylation assay by immuno-blotting, acetylated H4; assay type: cell-based, human; conditions: Colo205 cells, 0.1, 1, 5 and 10 µM, 24 h, western blot
# Method: as §1
# [4] = system: acetylated H3; assay: Histone acetylation assay by immuno-blotting, acetylated H3; assay type: cell-based, human; conditions: Colo205 cells, 0.1, 1, 5 and 10 µM, 24 h, western blot
# Method: as §1
# [5] = target: HDAC8 enzyme; assay: In vitro HDAC assay (BIOMOL fluorescent-based HDAC activity assay), HDAC8; assay type: biochemical, human
# Method: (§3) Expression of GST-HDAC1 or HTGST-HDAC8 was done by infecting SF9 cells (Invitrogen Pte Ltd) with pDEST20-HDAC1 or pFASTBAC-GST-HDAC8 baculovirus at MOI=1 for 48 h. Soluble cell lysate was incubated with pre-equilibrated Glutathione Sepharose 4B beads (Amersham) at 4°C for 2 h. The beads were washed with PBS buffer for 3 times. The GST-HDAC1 protein or GST-HDAC8 protein was eluted by elution buffer containing 50 mM Tris, pH8.0, 150mM NaCl, 1% Triton X-100 and 10mM or 20mM reduced Glutathione. The purified GST-HDAC1 protein or purified GST-HDAC8 protein was dialyzed with HDAC storage buffer containing 10mM Tris, pH7.5, 100mM NaCl and 3mM MgCl2. 20% Glycerol was added to purified GST-HDAC1 protein or purified GST-HDAC8 before storage at -80°C.
# [6] = system: MDA-MB435; assay: Cell-based proliferation assay (cyquant), MDA-MB435; parameters: species or system human; conditions: Homo sapiens, MDA-MB-435;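 also: GI50 taken from dose–response curves over a range of compound concentrations, with cell growth quantified by the CyQUANT proliferation assay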
# Method: as §2
# [7] = system: MDA-MB231; assay: Cell-based proliferation assay (cyquant), MDA-MB231; conditions: Homo sapiens, MDA-MB-231; Table 5; Free base
# Method: as §2
# [8] = system: HDAC3; assay: In vitro HDAC assay, HDAC3; assay type: biochemical; conditions: Table 5; Free base
# Method: The assay has been carried, out in 96 well format and the BIOMOL fluorescent-based HDAC activity assay has been applied. […] Flur de lys Developer was added and the reaction was incubated for 10 min. Briefly, deacetylation of the substrate sensitizes it to the developer, which then generates a fluorophore (symbol). The fluorophore is excited with 360 nm light and the emitted light (460 nm) is detected on a fluorometric plate reader (Tecan Ultra Microplate detection system, Tecan Group Ltd.).
# The analytical software, Prism 3.0 has been used to generate IC50 from a series of data.
# [9] = system: HCT116; assay: Cell-based proliferation assay (cyquant), HCT116; conditions: Homo sapiens, HCT-116; Table 5; Free base
# Method: as §2
# [10] = system: A549; assay: Cell-based proliferation assay (cyquant), A549; conditions: Homo sapiens, Table 5, Free base
# Method: as §2
# [11] = target: HDAC1 enzyme (Homo sapiens, UniProt Q13547); assay: In vitro HDAC assay (BIOMOL fluorescent-based HDAC activity assay), HDAC1; assay type: biochemical
# Method: as §3
# [12] = COLO 205, 96 h, Table 4, 96 h treatment
# [13] = Table 3, read-out: HDAC8 Enzyme Activity IC50
# [14] = COLO 205, Table 5, Salt of CF3COOH
# [15] = COLO 205, Table 4, 96 h treatment
# [16] = Table 5, Salt of CF3COOH, read-out: IC50 (HDAC1)
# [17] = Table 5, Free base, read-out: IC50 (HDAC8)
# Sequence of HDAC1 enzyme (Q13547 whole entry): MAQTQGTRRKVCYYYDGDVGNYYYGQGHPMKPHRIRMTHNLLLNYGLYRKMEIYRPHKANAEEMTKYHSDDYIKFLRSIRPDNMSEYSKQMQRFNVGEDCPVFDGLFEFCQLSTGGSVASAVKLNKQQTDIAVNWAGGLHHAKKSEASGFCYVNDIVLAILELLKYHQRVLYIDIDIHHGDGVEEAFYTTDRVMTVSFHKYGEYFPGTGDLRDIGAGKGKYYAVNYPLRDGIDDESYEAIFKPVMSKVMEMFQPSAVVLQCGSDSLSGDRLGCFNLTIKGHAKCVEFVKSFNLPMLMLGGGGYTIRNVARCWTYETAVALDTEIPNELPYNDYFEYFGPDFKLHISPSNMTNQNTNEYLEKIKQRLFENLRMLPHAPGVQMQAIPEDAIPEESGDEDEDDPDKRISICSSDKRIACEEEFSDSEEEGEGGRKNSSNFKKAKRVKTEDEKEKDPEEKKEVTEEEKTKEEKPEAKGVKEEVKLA
"GI50 [1, 12]","IC50 [5, 13]","GI50 ([6]; Table 4, 96 h treatment)",Compound,Histone acetylation activities Histone-4 [3],Histone acetylation activities Histone-3 [4],also measured
520 nM,119 nM,1640 nM,"CC(Cc1nc2cc(/C=C/C(=O)NO)ccc2n1CCCO)c1ccccc1 (stereo not drawn) [Compound 1, N-Hydroxy-3-[1-(3-hydroxy-propyl)-2-(2-phenyl-propyl)-1H-benzimidazol-5-yl]-acrylamide]",Active,Active,Histone acetylation activities Histone-2A [2]: Active
430 nM,355 nM,320 nM,"COc1cc(Cn2c(CCc3ccccc3)nc3cc(/C=C/C(=O)NO)ccc32)cc(OC)c1OC [Compound 2, N-Hydroxy-3-[1-(3,4,5-trimethoxybenzyl)-2-(2-phenyl-ethyl)-1H-benzimidazol-5-yl]-acrylamide]",Active,Active,"GI50 [7]: 500 nM; GI50 ([1]; COLO 205, Table 5, Free base): 400 nM; GI50 [1, 14]: 400 nM; Histone acetylation activities Histone-2A [2]: Active; IC50 [8]: 64 nM; GI50 [9]: 400 nM; GI50 ([6]; Table 5, Free base): 300 nM; GI50 [10]: 300 nM"
–,202 nM,1070 nM,"O=C(/C=C/c1ccc2c(c1)nc(CCc1ccccc1)n2Cc1cccnc1)NO [Compound 12, N-Hydroxy-3-[1-(3-pyridylmethyl)-2-(2-phenyl-ethyl)-1H-benzimidazol-5-yl]-acrylamide]",Active,Active,"GI50 [1, 15]: 380 nM"
3070 nM,251 nM,5990 nM,"O=C(/C=C/c1ccc2c(c1)nc(CCc1ccccc1)n2CCCO)NO [Compound 14, N-Hydroxy-3-[1-(3-hydroxy-propyl)-2-phenethyl-1H-benzimidazol-5-yl]-acrylamide]",–,–,–
60 nM,353 nM,560 nM,"CN(C)CC(C)(C)Cn1c(CCc2ccccc2)nc2cc(/C=C/C(=O)NO)ccc21 [Compound 17, N-Hydroxy-3-[1-(3-Dimethylamino-2,2-dimethyl-proppyl)-2-phenethyl-1H-benzimidazol-5-yl]-acrylamide]",Active,Active,"GI50 [7]: 700 nM; GI50 ([1]; COLO 205, Table 5, Free base): 60 nM; GI50 [1, 14]: 110 nM; GI50 ([1]; COLO 205, Table 5, Salt of HCl): 60 nM; GI50 ([1]; COLO 205, Table 5, Salt of Methane sulfonic acid): 40 nM; Histone acetylation activities Histone-2A [2]: Active; IC50 ([11]; Table 3, read-out: HDAC1 Enzyme Activity IC50): 24 nM; IC50 [11, 16]: 24 nM; GI50 [9]: 300 nM; IC50 [5, 17]: 353 nM; GI50 ([6]; Table 5, Free base): 600 nM; GI50 [10]: 200 nM"
30900 nM,537 nM,37200 nM,"O=C(/C=C/c1ccc2c(c1)nc(-c1ccsc1)n2CCCO)NO [Compound 20, N-Hydroxy-3-[1-(3-hydroxy-propyl)-2-thiophen-3-yl-1H-benzimidazol-5-yl]-acrylamide]",–,–,–
25900 nM,238 nM,30300 nM,"CC(C)Cc1nc2cc(/C=C/C(=O)NO)ccc2n1CCCO [Compound 21, N-Hydroxy-3-[1-(3-hydroxy-propyl)-2-isobutyl-1H-benzimidazol-5-yl]-acrylamide]",–,–,–
3650 nM,402 nM,3720 nM,"CCCCCCCCc1nc2cc(/C=C/C(=O)NO)ccc2n1CCCO [Compound 23, N-Hydroxy-3-[1-(3-hydroxy-propyl)-2-octyl-1H-benzimidazol-5-yl]-acrylamide]",–,–,–
–,329 nM,3440 nM,"O=C(/C=C/c1ccc2c(c1)nc(CCc1ccccc1)n2CCc1cccnc1)NO [Compound 27, N-Hydroxy-3-(2-phenethyl-1-(2-pyridin-3-yl-ethyl)-1H-benzimidazol-5-yl]-acrylamide]",–,–,"GI50 [1, 15]: 2230 nM"
11400 nM,724 nM,19800 nM,"O=C(/C=C/c1ccc2c(c1)nc(CCc1ccccc1)n2CCCN1CCCC1=O)NO [Compound 30, N-Hydroxy-3-{1-[3-(2-oxo-pyrrolidin-1-yl)-propyl]-2-phenethyl-1H-benzimidazol-5-yl}-acrylamide]",–,–,–
1540 nM,1450 nM,3380 nM,"O=C(/C=C/c1ccc2c(c1)nc(CCc1ccccc1)n2Cc1ccccc1)NO [Compound 33, N-Hydroxy-3-(1-Benzyl-2-phenethyl-1H-benzimidazol-5-yl)-acrylamide]",–,–,–
1890 nM,412 nM,6760 nM,"O=C(/C=C/c1ccc2c(c1)ncn2Cc1ccccc1)NO [Compound 35, N-Hydroxy-3-(1-Benzyl-1H-benzimidazol-5-yl)-acrylamide]",–,–,–
–,192 nM,8620 nM,"CCn1c(C)nc2cc(/C=C/C(=O)NO)ccc21 [Compound 43, N-Hydroxy-3-(1-Ethyl-2-methyl-1H-benzimidazol-5-yl]-acrylamide]",–,–,"GI50 [1, 15]: 9180 nM"
80 nM,–,–,"O=C(/C=C/c1ccc2c(c1)nc(CCc1ccccc1)n2CCN1CCCCC1)NO [Compound 67, N-Hydroxy-3-[2-phenethyl-1-(piperidin-1-yl-ethyl)-1H-benzimidazol-5-yl]-acrylamide]",Active,Active,"GI50 [7]: 60 nM; GI50 ([1]; COLO 205, Table 5, Free base): 90 nM; GI50 [1, 14]: 90 nM; Histone acetylation activities Histone-2A [2]: Active; IC50 [8]: 56 nM; IC50 [11, 16]: 39 nM; GI50 [9]: 60 nM; IC50 [5, 17]: 254 nM; GI50 ([6]; Table 5, Free base): 190 nM; GI50 [10]: 80 nM"
